Measured values from patent US20090186814A1, “Methods and Compositions for Reducing Ischemia-Derived Microvascular Damage” (priority 2005, published 2009).
Read-outs that look alike come from different tables or passages of the source. Ends that are not written are not given here. Peptide text beside a SMILES is read from it. * marks the point of attachment. Cbz = O=C(OCc1ccccc1)*; CH2F = FC*

Legend:
rat myocardium = conditions: in vivo rat myocardium; cited from earlier work
rabbit femoral arteries = conditions: in vivo rabbit femoral arteries; cited from earlier work
caspase-3 [1] = conditions: cited from earlier work
[2] = tested on: endothelial cells and myocytes of porcine hearts; assay: TUNEL staining and electron microscopy of porcine cardiac tissue 4 hours after reperfusion; format: in vivo, pig
Procedure: (§1) At the end of the reperfusion, 1 -mm-thick transverse sections of mouse hearts were incubated in triphenyltetrazolium chloride solution (TTC) (1% in phosphate buffer, pH 7.4) at 37° C. for 15 minutes as described in Inagaki, K. et al., Circulation 108:869-875 (2003) to determine the viable myocardium. One cm-thick transverse segments of the hearts were stained with TTC. Infarct size was expressed as a percentage of the total area at risk. Immunohistochemistry was performed on cardiac tissue two hours after reperfusion in murine hearts (n=5 for each group) as described in Vakeva, A. P., et al., Circulation 97:2259-2267 (1998). Hearts were immediately frozen in Optimal Cutting Temperature (OCT) Compound, and 5-μm-thick cryosections were obtained. Sections were fixed with 4% formaldehyde, blocked with 1 % normal donkey serum and incubated with mouse monoclonal anti-(x-actinin antibody (Sigma-Aldrich) or goat anti-PECAM-1 antibody (Santa Cruz Biochemicals) to distinguish between endothelial cells and myocytes. Secondary antibody treatments were carried out using goat anti-mouse IgG antibody conjugated with FITC or donkey anti-goat lgG antibody conjugated with FITC (Molecular Probe). Terminal deoxynucleotidyl transferase-mediated dUTP nick-end labeling (TUNEL) staining was performed for detection of apoptotic cells (Roche) and nuclei were counterstained with 4, 6-diamidino-2-phenylindole (DAPI; Sigma-Aldrich). Tissue samples from the non-ischemic area were used as negative control. TUNEL-positive nuclei were counted in a total of 1,500 myocytes and 500 of endothelial cells over several random fields.
Immunohistochemistry was performed on cardiac tissue as described in Example 1 with the exception that immunohisotchemistry was performed 4 hours after reperfusion in porcine hearts (n=3 for each group).
Electron microscopy study was performed on porcine cardiac tissue 4 hours after reperfusion (n=3 for each group). Samples taken from the mid-myocardium were fixed (FIG. 3A) and prepared as previously reported in Gottlieb, R. A., et al., J. Clin Invest. 94:1621-1628 (1994). Ultra-thin sections were stained with uranyl acetate lead citrate and examined with the H300 (Hitachi) electron microscopy. All other methods were as previously described in Examples 1 and 2.

caspase-3 [3] = conditions: myocardium; cited from earlier work
Yorkshire swine = format: in vivo, pig; design: key to CFR(Cx) / CFR(LAD): hyperemic average peak velocity ÷ baseline average peak velocity; conditions: for CFR(LAD): adenosine hyperemia; for CFR(Cx): unaffected left circumflex artery
Procedure: Yorkshire swine (30-45kg) were maintained during the every procedure under anesthesia by inhaled isoflurane (1-2%). A bolus of 300 IU/kg heparin was administered intravenously through the sheath (6 French) placed in the carotid artery. A 10 mm, over-the-wire angioplasty balloon was placed in the left anterior descending artery (LAD) proximal to the first diagonal branch. The balloon was inflated to occlude the LAD for 30 minutes. At the last 1 minute of a 30-minute ischemia, Tat-conjugated δV1-1 (250 ng/kg) or saline was infused at 1 mL/minute for 1 minute through the guide-wire lumen of the balloon catheter (n=9 for each group). Left ventriculogram (LVG) was obtained (40° left anterior oblique projection, 30 frames/sec) to measure cardiac function at 5 time points; before ischemia (baseline), 30 minutes, 24 hours, 5 days, and 10 days after ischemia (n=9 for each group). Ejection fraction (EF) and hypokinetic area were calculated using the software (Plus Plus, Sanders Data System, Calif.) with elimination of frames after premature ventricular contraction beats. Blood pressure and heart rate were measured just before LVG measurements at each time point through the water-filled catheter (Table 1). Coronary flow was measured by a 0.014″ Doppler-tipped guide wire (Flowire, JOMED Inc.) in the LAD, and the unaffected, left circumflex artery (LCx). The wire tip was placed 2 cm distal from the balloon-occluded site in the LAD. After stable baseline flow velocity was recorded, adenosine [endothelium-independent vasodilator; 48 μg; Suryapranata, H., et al., Circulation 89:1109-1117 (1994)] was infused intracoronarily to induce hyperemia (a transient increase in coronary blood flow through microvascular vasodilation) at 5 time points: before ischemia (baseline), 30 minutes, 24 hours, 5 days, and 10 days after ischemia (n=9 for each group). Bradykinin [endothelium-dependent vaodilator, 0.2ml of a 3×10^−6M in saline; Rodriguez-Sinovas, A., et al., J. Appl. Physiol. 95:81-88 (2003)] was also infused intracoronary before ischemia and 24 hours after reperfusion (n=6 for each group). Coronary flow reserve was calculated by dividing the average peak velocity (APV) at hyperemic phase by the baseline APV as described in Suryapranata, H., et al., Circulation 89:1109-1117 (1994). After reperfusion, to determine the area at risk in porcine hearts, LAD ligation was performed at the balloon-occluded site and Evan's Blue (0.0025%) was perfused as previously described in Inagaki, K., et al., Circulation 2304-2307 (2003). All other methods were performed as described in Example 1.

mouse hearts = assay: Ex vivo model of global ischemia and reperfusion injury, Langendorff-perfused mouse hearts (WT and δV1-1 transgenic)
Procedure: Transgenic mice (TG) that selectively express δV1-1 in myocytes were created using α- myosin heavy chain promoter. Hah, H. S., et al., Circ. Res. 91:741-748 (2002). Hemodynamic and morphometric parameters in these transgenic mice, as measured by echocardiographic measurements in vivo, were not different from those measured in wild type mice (WT). Inagaki, K., et al., Circulation 108:869-875 (2003). Mice were heparinized (4000U/kg IP) and anesthetized with sodium pentobarbital (200mg/kg IP). Hearts were perfused with an oxygenated Krebs-Henseleit buffer at 37° C. in a Langendorff system as previously described in Inagaki, K., et al., Circulation 108:869-875 (2003). Hearts were subjected to a 30-minute global ischemia and a 120-minute full reperfusion. The coronary flow rate was kept constant at 3 mL/minute (0.04L/min/g; initial coronary perfusion pressure: WT 67.4±5.1, WT+δV1-1 61.0±4.6, TG 62.6±3.9, TG+δV1-1 64.6±5.4 mmHg; PENS, n=5 for each group; FIG. 1) using an adjustable-speed rotary pump during the experiment to provide 60-80 mmHg of initial coronary perfusion pressure (CPP) as previously reported in Webster, K. A., et al., J. Clin. Invest. 104:239-252 (1999). CPP was measured through a sidearm in the Langendorff system. Coronary vascular resistance (CVR) was defined as CPP divided by coronary flow rate. Hearts were perfused with Tat-conjugated δV1-1 [50 nmol/L; Tat-conjugated δV1-1 described in Chen, L. et al., Proc. Natl. Acad. Sci. U.S.A. 98:11114-11119 (2001)] or vehicle (control) during the first 20 minutes of reperfusion (n=5 for each group). Coronary perfusion effluent was collected to determine creatine phosphokinase (CPK) release.
as §1
Data are expressed as mean±SEM. Two-way ANOVA for repeated measures was used for time-course of cardiac function and vascular function, 1-way factorial ANOVA with Fisher's test for multiple comparisons, and unpaired or paired student's t-test for difference between 2 groups. P<0.05 was considered statistically significant.

adult rat cardiomyocytes = conditions: cited from earlier work
[4] = electron microscopy, 4 hours after reperfusion
[5] = electron microscopy, 4 hours after reperfusion, listed as δV1-
[6] = four hours after reperfusion, TUNEL, n=3
[7] = LAD, Baseline (before ischemia)
[8] = further δV1-1 infusion to the transgenic hearts
[9] = transgenic mouse hearts, exogenous δV1-1
[10] = wild type hearts, exogenous δV1-1
[11] = wild type hearts, δV1-1 delivered through coronary arteries, 50 nmol/L, first 20 minutes of reperfusion

COC(=O)C[C@H](NC(=O)[C@H](C)NC(=O)[C@@H](NC(=O)OCc1ccccc1)C(C)C)C(=O)CF [ZVADfmk] (Cbz-Val-Ala-Asp(OMe)-CH2F)
reperfusion injury (rat myocardium): reduces reperfusion injury | staurosporin-induced endothelial apoptosis (rabbit femoral arteries): reduces

CC(=O)c1c(O)c(C)c(O)c(Cc2c(O)c3c(c(C(=O)/C=C/c4ccccc4)c2O)OC(C)(C)C=C3)c1O [rottlerin]
caspase-3 activity (caspase-3 [1]): attenuated

δV1-1: δPKC inhibitor peptide, SEQ ID NO:1 (SFNSYELGSL), amino acids 8-17 of rat δPKC; used Tat-conjugated in the examples (also: Tat conjugate in examples; listed as Rattus norvegicus)
endothelial cell swelling [2, 4]: minimal swelling | microvasculature lumen [2, 4]: patent | myocyte damage (contraction bands, swollen mitochondria) [2, 4]: no such pathological changes were observed | obstruction of capillaries by red and white blood cells [2, 4]: rarely seen | endothelial cell swelling [2, 5]: slight endothelial swelling | myocyte damage (contraction bands, swollen mitochondria) [2, 5]: neither contraction bands nor swollen mitochondria | decrease of apoptosis in endothelial cells [2, 6]: about 70% | decrease of apoptosis in myocytes [2, 6]: about 70% | reperfusion-induced caspase-3 activity (caspase-3 [3]): reduced | CFR(LAD) (Yorkshire swine; 30 min R): 2.00 ± 0.20 | coronary flow reserve in LAD following bradykinin infusion (Yorkshire swine; 24 hours after reperfusion, n=6): did not decrease | CFR(LAD) (Yorkshire swine; 24 hr R): 2.50 ± 0.24 | CFR(LAD) (Yorkshire swine; 5 days R): 2.68 ± 0.21 | CFR(LAD) (Yorkshire swine; 10 days R): 2.67 ± 0.27 | ejection fraction (Yorkshire swine; 10 days after ischemia, n=9): 69.9±1.6% | hypokinetic area (Yorkshire swine; 10 days after ischemia, n=9): 4.7±2.0% | CFR(LAD) (Yorkshire swine; Baseline (before ischemia)): 2.52 ± 0.16 | b-APV (baseline average peak flow velocity) (Yorkshire swine; Cx, 30 min R): 20.3 ± 3 cm/s | h-APV (hyperemia average peak flow velocity) (Yorkshire swine; Cx, 30 min R): 37 ± 3 cm/s | b-APV (baseline average peak flow velocity) (Yorkshire swine; Cx, 24 hr R): 15 ± 2 cm/s | h-APV (hyperemia average peak flow velocity) (Yorkshire swine; Cx, 24 hr R): 30 ± 4 cm/s | b-APV (baseline average peak flow velocity) (Yorkshire swine; Cx, 5 days R): 25 ± 5 cm/s | h-APV (hyperemia average peak flow velocity) (Yorkshire swine; Cx, 5 days R): 55 ± 10 cm/s | b-APV (baseline average peak flow velocity) (Yorkshire swine; Cx, 10 days R): 25 ± 3 cm/s | h-APV (hyperemia average peak flow velocity) (Yorkshire swine; Cx, 10 days R): 55 ± 5 cm/s | b-APV (baseline average peak flow velocity) (Yorkshire swine; Cx, Baseline (before ischemia)): 24 ± 2 cm/s | h-APV (hyperemia average peak flow velocity) (Yorkshire swine; Cx, Baseline (before ischemia)): 61 ± 3 cm/s | b-APV (baseline average peak flow velocity) (Yorkshire swine; LAD, 30 min R): 27 ± 4 cm/s | h-APV (hyperemia average peak flow velocity) (Yorkshire swine; LAD, 30 min R): 49 ± 4 cm/s | b-APV (baseline average peak flow velocity) (Yorkshire swine; LAD, 24 hr R): 18 ± 1 cm/s | h-APV (hyperemia average peak flow velocity) (Yorkshire swine; LAD, 24 hr R): 46 ± 6 cm/s | b-APV (baseline average peak flow velocity) (Yorkshire swine; LAD, 5 days R): 24 ± 3 cm/s | h-APV (hyperemia average peak flow velocity) (Yorkshire swine; LAD, 5 days R): 67 ± 9 cm/s | b-APV (baseline average peak flow velocity) (Yorkshire swine; LAD, 10 days R): 25 ± 4 cm/s | h-APV (hyperemia average peak flow velocity) (Yorkshire swine; LAD, 10 days R): 57 ± 6 cm/s | b-APV (baseline average peak flow velocity) (Yorkshire swine; [7]): 24 ± 3 cm/s | h-APV (hyperemia average peak flow velocity) (Yorkshire swine; [7]): 58 ± 7 cm/s | resting APV and coronary flow reserve in left circumflex artery (LCx, control artery) (Yorkshire swine; all time points): remained normal | infarct size (Yorkshire swine; intracoronary treatment at the time of reperfusion, 10 days after ischemia, n=9): 4.4±1.1% | blood pressure, heart rate or vessel diameter vs. control group (Yorkshire swine; pig, in vivo): no significant differences | CFR(Cx) (Yorkshire swine; 30 min R): 1.73 ± 0.21 | CFR(Cx) (Yorkshire swine; 24 hr R): 1.96 ± 0.04 | CFR(Cx) (Yorkshire swine; 5 days R): 2.01 ± 0.14 | CFR(Cx) (Yorkshire swine; 10 days R): 2.46 ± 0.20 | CFR(Cx) (Yorkshire swine; Baseline (before ischemia)): 2.44 ± 0.10 | time until coronary flow reserve (adenosine, LAD) was normalized (Yorkshire swine; δV1-1-treated pigs): ≤ 24 h | coronary flow reserve following adenosine infusion in LAD after reperfusion (Yorkshire swine; δV1-1-treated pigs, 250 ng/kg intracoronary at last 1 minute of ischemia): minor decrease | coronary vascular resistance (CVR) during reperfusion (mouse hearts; further treatment of transgenic mouse hearts): significantly minimized the rise of CVR | CPK release (mouse hearts; [8]): unaffected | infarct size (mouse hearts; [8]): unaffected | TUNEL-positive myocytes (mouse hearts; [9]): without any further effect | decrease of TUNEL-positive endothelial cells (mouse hearts; [9]): 80% | reduction of number of TUNEL positive endothelial cells (mouse hearts; [10]): 80% | reduction of number of TUNEL positive myocytes (mouse hearts; [10]): 80% | decrease in CPK release (mouse hearts; [11]): about 70% | decrease in infarct size (mouse hearts; [11]): about 70% | hyperglycemia-induced apoptosis (adult rat cardiomyocytes): inhibits | free radical formation (adult rat cardiomyocytes; hyperglycemia): inhibits
